# What was measured:
# [1] = Saturation concentration in different oils (soy, sunflower, rapeseed); assay type: physicochemical; conditions: 25° C.
# Protocol: Each of said mixtures was continuously and gently stirred for 10 minutes at ambient temperature (25° C.) and then maintained at rest for 60 minutes. The saturation concentration was considered to be that which was immediately less than a concentration where deposition was observed, but in which no deposition of the active ingredient was observed.
# TGFβ1 = test: Immunohistochemistry of TGFβ1 in respiratory tract tissue of sodium hypochlorite aerosol-treated rabbits; assay type: in vivo, New Zealand albino rabbits
# Source text: It is known that the factors TGF-α, TGF-β 1, TGF-β 2, TGF-β 3, SPARC, MMP-3; MMP-7, MMP-9, MMP-11, MMP-13 and MMP-14, TGF-β, NF-kB, EGF, MMP-9, VEGF and TNF-α which are produced by lung cells (pneumocytes, fibroblasts and vascular endothelial cells) and inflammatory cells (macrophages, lymphocytes and polymorphonuclear leukocytes) are involved in the pathophysiology and development of said respiratory tract diseases. […] Herein, 27 New Zealand albino rabbits (New Zealand White Rabbit) with an initial average weight about 3 kg were used in this example. All subjects were administered an aerosol of a solution consisting of a mixture of water and sodium hypochlorite (35 g sodium hypochlorite per liter of water) at a rate of 5 mL of said solution by inhalation three times a day for 7 days (days 1 to 7 of experimentation). Subsequently, from days 3 to 7, a group of 3 rabbits (Group 1) was administered an oral dose of 10 mg/kg body weight per day, another group of 3 rabbits (Group 2) was administered an oral dose of 40 mg/kg body weight per day, a third group (Group 3) was administered an oral dose of 80 mg/kg body weight per day and a fourth group (Group 4) was administered an oral dose of 100 mg/kg body weight per day. […] This mixture was administered as an aerosol by inhalation, also from days 3 to 7, to a group of 3 rabbits (group 5) at a dose of 0.05 mg/kg body weight per day, to another group of three rabbits (Group 6) at a dose of 0.1 mg/kg body weight per day, to another group of three rabbits (Group 7) at a dose of 0.2 mg/kg body weight per day and to another group of three rabbits (Group 8) at a dose of 0.4 mg/kg body weight per day. A placebo consisting only of olive oil was administered from days 3 to 7 to a control group of 3 rabbits (placebo group). In parallel, 3 rabbits were kept under identical conditions but were not administered any treatment nor the aforementioned sodium hypochlorite solution (control group). […] On day 7 of the experiment all animals were euthanized and necropsied. […] Samples were taken at the peripheral level of the lung parenchyma, just below the pleural surface. Tissue samples were also taken from the nasal cavity, pharynx, larynx and bronchi. Immunohistochemistry studies were performed for all samples to evaluate the levels of the markers TGF-α, TGF-β 1, TGF-β 2, TGF-β 3 SPARC, MMP-3; MMP-7, MMP-9, MMP-11, MMP-14, TGF-β, TNF-α and VEGF. In said immunohistochemistry studies, a sample of each sample was dehydrated by treatment with increasing concentrations of ethanol and finally xylene. Subsequently said dried samples were embedded in paraffin, thus creating a block. Said paraffin blocks were cut on a microtome to a thickness of 5 μm, and the resulting sections (slices) were placed on slides suitable for conducting immunohistochemistry techniques. Subsequently, the sections were deparaffinised by immersion in xylene and then rehydrated through immersion in a series of solutions containing decreasing concentrations of ethanol and, finally, water. […] The samples were then allowed to cool to room temperature over 10 minutes. Endogenous peroxidase activity was blocked by treatment with 3% hydrogen peroxide over 30 min at room temperature. […] In order to verify the expression of NK1 receptors, the cell samples were incubated in the presence of anti-NK1 antibodies ([…], Sigma-Aldrich) diluted 1:1000 at 4° C. overnight. After this time they were washed in 0.05M Tris buffer at room temperature. Subsequently, Envision System-HRP (Dako) reagents were added for 30 min at room temperature. Once this time had expired, the samples were again washed with 0.05 M Tris buffer, and immunoreactivity was visualized by light microscopy with a chromogenic solution with 3,3'-diaminobenzidine (DAB+; Dako, USA). In order to differentiate the cell nuclei, these were lightly stained with haematoxylin. Samples that were not incubated with the primary antibody, but wherein this was replaced by a non-immune serum were used as negative controls. […]
# [2] = Tissue concentration of aprepitant by HPLC after oral or inhaled administration to rabbits; assay type: in vivo, New Zealand albino rabbits; conditions: oral, 10 to 100 mg/kg per day
compound,measurement,setting,value
"C[C@@H](OC1OCCN(Cc2nc(=O)[nH][nH]2)C1c1ccc(F)cc1)c1cc(C(F)(F)F)cc(C(F)(F)F)c1 (stereo in doubt) [Aprepitant, 5-([(2R,3S)-2-((R)-1-[3,5-bis(trifluoromethyl)phenyl]ethoxy)-3-(4-fluorophenyl)morpholino]methyl)-1H-1,2,4-triazol-3(2H)-one]",Saturation concentration,[1]; Rapeseed oil,80 nM
same,Saturation concentration,[1]; Soy oil,60 nM
same,Saturation concentration,[1]; Sunflower oil,70 nM
same,Percent increase in TGFβ1 with respect to the control group,"TGFβ1; bronchial tissue, Group 1, oral 10 mg/kg per day","1,234.56%"
same,Percent increase in TGFβ1 with respect to the control group,"TGFβ1; bronchial tissue, Group 2, oral 40 mg/kg per day",984.45%
same,Percent increase in TGFβ1 with respect to the control group,"TGFβ1; bronchial tissue, Group 3, oral 80 mg/kg per day",768.32%
same,Percent increase in TGFβ1 with respect to the control group,"TGFβ1; bronchial tissue, Group 4, oral 100 mg/kg per day",502.23%
same,% Med G5/C: percent increase in marker TGFβ1 with respect to the control group,"TGFβ1; bronchial tissue, Group 5","1,103.34%"
same,% Med G6/C: percent increase in marker TGFβ1 with respect to the control group,"TGFβ1; bronchial tissue, Group 6",708.45%
same,% Med G7/C: percent increase in marker TGFβ1 with respect to the control group,"TGFβ1; bronchial tissue, Group 7",302.34%
same,% Med G8/C: percent increase in marker TGFβ1 with respect to the control group,"TGFβ1; bronchial tissue, Group 8",124.37%
same,Percent increase in TGFβ1 with respect to the control group,"TGFβ1; laryngeal tissue, Group 1, oral 10 mg/kg per day","1,567.67%"
same,Percent increase in TGFβ1 with respect to the control group,"TGFβ1; laryngeal tissue, Group 2, oral 40 mg/kg per day","1,278.89%"
same,Percent increase in TGFβ1 with respect to the control group,"TGFβ1; laryngeal tissue, Group 3, oral 80 mg/kg per day","1,067.78%"
same,Percent increase in TGFβ1 with respect to the control group,"TGFβ1; laryngeal tissue, Group 4, oral 100 mg/kg per day",988.78%
same,Percent increase in TGFβ1 with respect to the control group,"TGFβ1; laryngeal tissue, Group 5, inhalation 0.05 mg/kg per day","1,398.78%"
same,Percent increase in TGFβ1 with respect to the control group,"TGFβ1; laryngeal tissue, Group 6, inhalation 0.1 mg/kg per day",760.87%
same,Percent increase in TGFβ1 with respect to the control group,"TGFβ1; laryngeal tissue, Group 7, inhalation 0.2 mg/kg per day",320.34%
same,Percent increase in TGFβ1 with respect to the control group,"TGFβ1; laryngeal tissue, Group 8, inhalation 0.4 mg/kg per day",102.23%
same,Percent increase in TGFβ1 with respect to the control group,"TGFβ1; lung tissue, Group 1, oral 10 mg/kg per day","1,277.48%"
same,Percent increase in TGFβ1 with respect to the control group,"TGFβ1; lung tissue, Group 2, oral 40 mg/kg per day",990.28%
same,Percent increase in TGFβ1 with respect to the control group,"TGFβ1; lung tissue, Group 3, oral 80 mg/kg per day",858.27%
same,Percent increase in TGFβ1 with respect to the control group,"TGFβ1; lung tissue, Group 4, oral 100 mg/kg per day",759.25%
same,Percent increase in TGFβ1 with respect to the control group,"TGFβ1; lung tissue, Group 5, inhalation 0.05 mg/kg per day","1,166.88%"
same,Percent increase in TGFβ1 with respect to the control group,"TGFβ1; lung tissue, Group 6, inhalation 0.1 mg/kg per day",492.89%
same,Percent increase in TGFβ1 with respect to the control group,"TGFβ1; lung tissue, Group 7, inhalation 0.2 mg/kg per day",270.24%
same,Percent increase in TGFβ1 with respect to the control group,"TGFβ1; lung tissue, Group 8, inhalation 0.4 mg/kg per day",123.01%
same,Percent increase in TGFβ1 with respect to the control group,"TGFβ1; nasal cavity tissue, Group 1, oral 10 mg/kg per day","2,191.33%"
same,Percent increase in TGFβ1 with respect to the control group,"TGFβ1; nasal cavity tissue, Group 2, oral 40 mg/kg per day","1,562.26%"
same,Percent increase in TGFβ1 with respect to the control group,"TGFβ1; nasal cavity tissue, Group 3, oral 80 mg/kg per day","1,491.16%"
same,Percent increase in TGFβ1 with respect to the control group,"TGFβ1; nasal cavity tissue, Group 4, oral 100 mg/kg per day","1,373.96%"
same,Percent increase in TGFβ1 with respect to the control group,"TGFβ1; nasal cavity tissue, Group 5, inhalation 0.05 mg/kg per day","2,065.52%"
same,Percent increase in TGFβ1 with respect to the control group,"TGFβ1; nasal cavity tissue, Group 6, inhalation 0.1 mg/kg per day",745.49%
same,Percent increase in TGFβ1 with respect to the control group,"TGFβ1; nasal cavity tissue, Group 7, inhalation 0.2 mg/kg per day",480.80%
same,Percent increase in TGFβ1 with respect to the control group,"TGFβ1; nasal cavity tissue, Group 8, inhalation 0.4 mg/kg per day",138.39%
same,Percent increase in TGFβ1 with respect to the control group,"TGFβ1; pharyngeal tissue, Group 1, oral 10 mg/kg per day","2,198.45%"
same,Percent increase in TGFβ1 with respect to the control group,"TGFβ1; pharyngeal tissue, Group 2, oral 40 mg/kg per day","1,562.45%"
same,Percent increase in TGFβ1 with respect to the control group,"TGFβ1; pharyngeal tissue, Group 3, oral 80 mg/kg per day","1,208.45%"
same,Percent increase in TGFβ1 with respect to the control group,"TGFβ1; pharyngeal tissue, Group 4, oral 100 mg/kg per day","1,001.31%"
same,Percent increase in TGFβ1 with respect to the control group,"TGFβ1; pharyngeal tissue, Group 5, inhalation 0.05 mg/kg per day","1,804.23%"
same,Percent increase in TGFβ1 with respect to the control group,"TGFβ1; pharyngeal tissue, Group 6, inhalation 0.1 mg/kg per day","1,220.34%"
same,Percent increase in TGFβ1 with respect to the control group,"TGFβ1; pharyngeal tissue, Group 7, inhalation 0.2 mg/kg per day",609.67%
same,Percent increase in TGFβ1 with respect to the control group,"TGFβ1; pharyngeal tissue, Group 8, inhalation 0.4 mg/kg per day",121.89%
same,relationship between dose and concentration in lung tissue,[2],non-linear and not proportional
